Tests used:
[1] = tested on: T. mentagrohytes; test: MIC distribution, serial dilutions in Sabouraud gentamycin broth, microplates; format: cell-based; settings: # of strains = 17
Protocol: (§1) The antifungal activity of 1-[(2-fluorophenyl)(4-fluorophenyl)phenylmethyl]-1H-imidazole and bifonazole was determined by serial dilutions in Sabouraud gentamycin broth using microplates. The antifungal agent was diluted in 50% ethanol to obtain concentrations between 40 and 0.015 mcg/ml. Inoculum was 10^7 cfu/ml for yeast and 10^6 cfu/ml for dermatophytes. Incubation was allowed at 37° C. during 2 days for yeasts, and at 29° C. during 7 days for dermatophytes. MIC's were determined as in example 18. The MIC distributions obtained in 9 organisms are shown in the next tables.

[2] = tested on: M. canis; test: as above; format: cell-based; settings: # of strains = 13
Protocol: as §1

[3] = tested on: C. albicans; test: as above; format: cell-based; settings: # of strains = 50
Protocol: as §1

[4] = tested on: C. parapsilosis; test: as above; format: cell-based; settings: # of strains 10 = UR-4056/14 = Bifonazole
Protocol: as §1

[5] = tested on: T. rubrum; test: as above; format: cell-based; settings: # of strains = 6
Protocol: as §1

[6] = tested on: T. glabrata; test: as above; format: cell-based; settings: # of strains = 10 = UR-4056/15 Bifonzaole
Protocol: as §1

[7] = tested on: C. tropicalis; test: as above; format: cell-based; settings: # of strains = 30
Protocol: as §1

[8] = tested on: C. krusei; test: as above; format: cell-based; settings: # of strains = 5
Protocol: as §1

[9] = tested on: mice; settings: mouse, in vivo
[10] = Tolerance (DL50) in mice; settings: mouse, in vivo
[11] = tested on: yeast and filamentous fungi; test: Comparative antifungal tests of Examples 18 to 20; format: cell-based
Protocol: The antifungal activity of 1-[(2-fluorophenyl)(4-fluorophenyl)phenylmethyl]-1H-imidazole was shown by its ability to inhibit the growth of different species of yeast and filamentous fungi in vitro. The activity was recorded as the MIC value, that is, the minimum amount of product needed to achieve the complete inhibition of the in vitro growth of the test organism. Testing was performed as follows: a solution of the antifungal agent in ethanol was diluted with DST agar (pH 6.5) or Emmon's Sabouraud dextrose agar to obtain concentrations between 10 and 0.01 mcg/ml, or 80 and 0.16 mcg/m, respectively. The inoculum was standarized in order 1×10^5 cfu/ml, and 10 mcl of each organism was seeded into the agar surface. […] Following incubation, the zones of inhibition were measured and compared to an inoculated, drug-free control to yield the MIC value.
The growth inhibition percentage of 5 different isolates on shake cultures was determined 24 h and 48 h after incubation at 28° C. […] The growth inhibition percentage was determined by spectrophotometry (450 nm). […]
The antifungal activity of 1-[(2-fluorophenyl)(4-fluorophenyl)phenylmethyl]-1H-imidazole and bifonazole was determined by serial dilutions in Sabouraud gentamycin broth using microplates. […] MIC's were determined as in example 18. […]

[12] = Pharmacokinetics; settings: in words
[13] = Liposolubility (log P octanol-water); format: physicochemical
[14] = tested on: fungi (some species); test: Preliminary tests of antifungal activity; format: cell-based

## c1ccc(-c2ccc(C(c3ccccc3)n3ccnc3)cc2)cc1 (stereo not shown) [Bifonazole, 1-[(4-biphenyl)-phenylmethyl]-1H-imidazole, reference compound]
[1]; MIC 0.038
  MIC Distribution (number of strains): 1 # of strains
[1]; MIC 0.6
  MIC Distribution (number of strains): 1 # of strains
[1]; MIC 2.5
  MIC Distribution (number of strains): 5 # of strains
[1]; MIC column 1.2
  MIC Distribution (number of strains): 10 # of strains
[2]; MIC 0.038
  MIC Distribution (number of strains): 1 # of strains
[2]; MIC 2.5
  MIC Distribution (number of strains): 4 # of strains
[2]; MIC 5.0
  MIC Distribution (number of strains): 5 # of strains
[2]; MIC column 0.078
  MIC Distribution (number of strains): 1 # of strains
[2]; MIC column 1.2
  MIC Distribution (number of strains): 2 # of strains
[3]; MIC 2.5
  MIC Distribution (number of strains): 6 # of strains
[3]; MIC 5.0
  MIC Distribution (number of strains): 28 # of strains
[3]; MIC column 10
  MIC Distribution (number of strains): 11 # of strains
[3]; MIC column 20
  MIC Distribution (number of strains): 1 # of strains
[3]; MIC column 40 (first)
  MIC Distribution (number of strains): 4 # of strains
[4]; MIC 0.6
  MIC Distribution (number of strains): 1 # of strains
[4]; MIC 5.0
  MIC Distribution (number of strains): 1 # of strains
[4]; MIC column 10
  MIC Distribution (number of strains): 2 # of strains
[4]; MIC column 40 (first)
  MIC Distribution (number of strains): 10 # of strains
[5]; MIC 0.038
  MIC Distribution (number of strains): 2 # of strains
[5]; MIC 0.3
  MIC Distribution (number of strains): 1 # of strains
[5]; MIC 0.6
  MIC Distribution (number of strains): 1 # of strains
[5]; MIC 5.0
  MIC Distribution (number of strains): 1 # of strains
[5]; MIC column 1.2
  MIC Distribution (number of strains): 1 # of strains
[6]; MIC 0.15
  MIC Distribution (number of strains): 1 # of strains
[6]; MIC 0.6
  MIC Distribution (number of strains): 1 # of strains
[6]; MIC 2.5
  MIC Distribution (number of strains): 3 # of strains
[6]; MIC 5.0
  MIC Distribution (number of strains): 5 # of strains
[6]; MIC column 10
  MIC Distribution (number of strains): 3 # of strains
[6]; MIC column 40 (first)
  MIC Distribution (number of strains): 2 # of strains
[7]; MIC 5.0
  MIC Distribution (number of strains): 2 # of strains
[7]; MIC column 10
  MIC Distribution (number of strains): 1 # of strains
[7]; MIC column 40 (first)
  MIC Distribution (number of strains): 27 # of strains
[8]; MIC 2.5
  MIC Distribution (number of strains): 1 # of strains
[8]; MIC column 10
  MIC Distribution (number of strains): 1 # of strains
[8]; MIC column 40 (first)
  MIC Distribution (number of strains): 3 # of strains

## Fc1ccc(C(c2ccccc2)(c2ccccc2F)n2ccnc2)cc1 (stereo not shown) [UR-4056, 1-[(2-fluorophenyl) (4-fluorophenyl)phenylmethyl]-1H-imidazole]
[9]
  tolerance: good tolerance
[10]
  LD50: 691 mg/kg
[11]
  potency compared with bifonazole: more potent than bifonazole in many instances
[12]
  pharmacokinetics: appropiate pharmacokinetics
[13]; in words
  liposolubility: good liposolubility
[13]; octanol-water
  logP: 3.09
[14]
  antifungal activity: very good activity against some species
[1]; MIC 0.15
  MIC Distribution (number of strains): 1 # of strains
[1]; MIC 0.3
  MIC Distribution (number of strains): 2 # of strains
[1]; MIC 0.6
  MIC Distribution (number of strains): 11 # of strains
[1]; MIC column 1.2
  MIC Distribution (number of strains): 3 # of strains
[2]; MIC 0.3
  MIC Distribution (number of strains): 4 # of strains
[2]; MIC 2.5
  MIC Distribution (number of strains): 4 # of strains
[2]; MIC column 1.2
  MIC Distribution (number of strains): 5 # of strains
[3]; MIC 0.3
  MIC Distribution (number of strains): 1 # of strains
[3]; MIC 2.5
  MIC Distribution (number of strains): 11 # of strains
[3]; MIC 5.0
  MIC Distribution (number of strains): 31 # of strains
[3]; MIC column 1.2
  MIC Distribution (number of strains): 2 # of strains
[3]; MIC column 10
  MIC Distribution (number of strains): 5 # of strains
[4]; MIC 0.038
  MIC Distribution (number of strains): 2 # of strains
[4]; MIC 0.15
  MIC Distribution (number of strains): 1 # of strains
[4]; MIC 0.3
  MIC Distribution (number of strains): 2 # of strains
[4]; MIC 0.6
  MIC Distribution (number of strains): 2 # of strains
[4]; MIC column 1.2
  MIC Distribution (number of strains): 1 # of strains
[4]; MIC column 10
  MIC Distribution (number of strains): 2 # of strains
[5]; MIC 0.15
  MIC Distribution (number of strains): 4 # of strains
[5]; MIC 2.5
  MIC Distribution (number of strains): 1 # of strains
[5]; MIC column 1.2
  MIC Distribution (number of strains): 1 # of strains
[6]; MIC 0.6
  MIC Distribution (number of strains): 1 # of strains
[6]; MIC 2.5
  MIC Distribution (number of strains): 1 # of strains
[6]; MIC 5.0
  MIC Distribution (number of strains): 2 # of strains
[6]; MIC column 10
  MIC Distribution (number of strains): 4 # of strains
[6]; MIC column 20
  MIC Distribution (number of strains): 1 # of strains
[6]; MIC column 40 (first)
  MIC Distribution (number of strains): 1 # of strains
[7]; MIC 0.6
  MIC Distribution (number of strains): 1 # of strains
[7]; MIC 2.5
  MIC Distribution (number of strains): 4 # of strains
[7]; MIC 5.0
  MIC Distribution (number of strains): 13 # of strains
[7]; MIC column 0.078
  MIC Distribution (number of strains): 1 # of strains
[7]; MIC column 1.2
  MIC Distribution (number of strains): 3 # of strains
[7]; MIC column 10
  MIC Distribution (number of strains): 8 # of strains
[8]; MIC 0.3
  MIC Distribution (number of strains): 1 # of strains
[8]; MIC 2.5
  MIC Distribution (number of strains): 2 # of strains
[8]; MIC column 1.2
  MIC Distribution (number of strains): 1 # of strains
[8]; MIC column 40 (first)
  MIC Distribution (number of strains): 1 # of strains
